# Legend:
# Type in all cases: functional
# Staphylococcus aureus [1] = test: Antibacterial activity against Staphylococcus aureus assessed as diameter of inhibition zone at 12.5 ug/well after 24 hrs by agar well diffusion method; conditions: read-out: DIZ
# Staphylococcus aureus [2] = test: Antibacterial activity against Staphylococcus aureus assessed as diameter of inhibition zone at 25 ug/well after 24 hrs by agar well diffusion method; conditions: read-out: DIZ
# Staphylococcus aureus [3] = test: Antibacterial activity against Staphylococcus aureus assessed as diameter of inhibition zone at 50 ug/well after 24 hrs by agar well diffusion method; conditions: read-out: DIZ
# Staphylococcus aureus [4] = test: Antibacterial activity against Staphylococcus aureus assessed as diameter of inhibition zone at 100 ug/well after 24 hrs by agar well diffusion method; conditions: read-out: DIZ
# Bacillus subtilis [5] = test: Antibacterial activity against Bacillus subtilis assessed as diameter of inhibition zone at 12.5 ug/well after 24 hrs by agar well diffusion method; conditions: read-out: DIZ
# Bacillus subtilis [6] = test: Antibacterial activity against Bacillus subtilis assessed as diameter of inhibition zone at 25 ug/well after 24 hrs by agar well diffusion method; conditions: read-out: DIZ
# Bacillus subtilis [7] = test: Antibacterial activity against Bacillus subtilis assessed as diameter of inhibition zone at 50 ug/well after 24 hrs by agar well diffusion method; conditions: read-out: DIZ
# Bacillus subtilis [8] = test: Antibacterial activity against Bacillus subtilis assessed as diameter of inhibition zone at 100 ug/well after 24 hrs by agar well diffusion method; conditions: read-out: DIZ
# Pseudomonas aeruginosa [9] = test: Antibacterial activity against Pseudomonas aeruginosa assessed as diameter of inhibition zone at 12.5 ug/well after 24 hrs by agar well diffusion method; conditions: read-out: DIZ
# Pseudomonas aeruginosa [10] = test: Antibacterial activity against Pseudomonas aeruginosa assessed as diameter of inhibition zone at 25 ug/well after 24 hrs by agar well diffusion method; conditions: read-out: DIZ
# Pseudomonas aeruginosa [11] = test: Antibacterial activity against Pseudomonas aeruginosa assessed as diameter of inhibition zone at 50 ug/well after 24 hrs by agar well diffusion method; conditions: read-out: DIZ
# Pseudomonas aeruginosa [12] = test: Antibacterial activity against Pseudomonas aeruginosa assessed as diameter of inhibition zone at 100 ug/well after 24 hrs by agar well diffusion method; conditions: read-out: DIZ
# Klebsiella pneumoniae [13] = test: Antibacterial activity against Klebsiella pneumoniae assessed as diameter of inhibition zone at 12.5 ug/well after 24 hrs by agar well diffusion method; conditions: read-out: DIZ
# Klebsiella pneumoniae [14] = test: Antibacterial activity against Klebsiella pneumoniae assessed as diameter of inhibition zone at 25 ug/well after 24 hrs by agar well diffusion method; conditions: read-out: DIZ
# Klebsiella pneumoniae [15] = test: Antibacterial activity against Klebsiella pneumoniae assessed as diameter of inhibition zone at 50 ug/well after 24 hrs by agar well diffusion method; conditions: read-out: DIZ
# Klebsiella pneumoniae [16] = test: Antibacterial activity against Klebsiella pneumoniae assessed as diameter of inhibition zone at 100 ug/well after 24 hrs by agar well diffusion method; conditions: read-out: DIZ
# Aspergillus niger [17] = test: Antifungal activity against Aspergillus niger assessed as diameter of inhibition zone at 12.5 ug/well after 48 hrs by agar well diffusion method; conditions: read-out: DIZ
# Aspergillus niger [18] = test: Antifungal activity against Aspergillus niger assessed as diameter of inhibition zone at 25 ug/well after 48 hrs by agar well diffusion method; conditions: read-out: DIZ
# Aspergillus niger [19] = test: Antifungal activity against Aspergillus niger assessed as diameter of inhibition zone at 50 ug/well after 48 hrs by agar well diffusion method; conditions: read-out: DIZ
# Aspergillus niger [20] = test: Antifungal activity against Aspergillus niger assessed as diameter of inhibition zone at 100 ug/well after 48 hrs by agar well diffusion method; conditions: read-out: DIZ
# Penicillium chrysogenum [21] = test: Antifungal activity against Penicillium chrysogenum assessed as diameter of inhibition zone at 12.5 ug/well after 48 hrs by agar well diffusion method; conditions: read-out: DIZ
# Penicillium chrysogenum [22] = test: Antifungal activity against Penicillium chrysogenum assessed as diameter of inhibition zone at 25 ug/well after 48 hrs by agar well diffusion method; conditions: read-out: DIZ
# Penicillium chrysogenum [23] = test: Antifungal activity against Penicillium chrysogenum assessed as diameter of inhibition zone at 50 ug/well after 48 hrs by agar well diffusion method; conditions: read-out: DIZ
# Penicillium chrysogenum [24] = test: Antifungal activity against Penicillium chrysogenum assessed as diameter of inhibition zone at 100 ug/well after 48 hrs by agar well diffusion method; conditions: read-out: DIZ
# Staphylococcus aureus [25] = test: Antibacterial activity against Staphylococcus aureus after 24 hrs by turbidity-based broth dilution assay
# Pseudomonas aeruginosa [26] = test: Antibacterial activity against Pseudomonas aeruginosa after 24 hrs by turbidity-based broth dilution assay
# Klebsiella pneumoniae [27] = test: Antibacterial activity against Klebsiella pneumoniae after 24 hrs by turbidity-based broth dilution assay
# Aspergillus niger [28] = test: Antifungal activity against Aspergillus niger after 48 hrs by turbidity-based broth dilution assay
# Penicillium chrysogenum [29] = test: Antifungal activity against Penicillium chrysogenum after 48 hrs by turbidity-based broth dilution assay
# Staphylococcus aureus [30] = test: Bactericidal activity against Staphylococcus aureus incubated for 24 hrs followed by regrowth on sterile nutrient broth for 24 hrs
# Bacillus subtilis [31] = test: Bactericidal activity against Bacillus subtilis incubated for 24 hrs followed by regrowth on sterile nutrient broth for 24 hrs; set-up: unit not given here
# Pseudomonas aeruginosa [32] = test: Bactericidal activity against Pseudomonas aeruginosa incubated for 24 hrs followed by regrowth on sterile nutrient broth for 24 hrs
# Klebsiella pneumoniae [33] = test: Bactericidal activity against Klebsiella pneumoniae incubated for 24 hrs followed by regrowth on sterile nutrient broth for 24 hrs
# Aspergillus niger [34] = test: Fungicidal activity against Aspergillus niger incubated for 48 hrs followed by regrowth on PDA plates for 48 hrs
# Penicillium chrysogenum [35] = test: Fungicidal activity against Penicillium chrysogenum incubated for 48 hrs followed by regrowth on PDA plates for 48 hrs
# Aspergillus niger [36] = test: Ratio of MFC to MIC for Aspergillus niger
# Pseudomonas aeruginosa [37] = test: Ratio of MBC to MIC for Pseudomonas aeruginosa
Structure (SMILES),zone of inhibition at 12.5 µg/disc (Staphylococcus aureus [1]) [mm],zone of inhibition at 25 µg/disc (Staphylococcus aureus [2]) [mm],zone of inhibition at 50 µg/disc (Staphylococcus aureus [3]) [mm],zone of inhibition at 100 µg/disc (Staphylococcus aureus [4]) [mm],zone of inhibition at 12.5 µg/disc (Bacillus subtilis [5]) [mm],zone of inhibition at 25 µg/disc (Bacillus subtilis [6]) [mm],zone of inhibition at 50 µg/disc (Bacillus subtilis [7]) [mm],zone of inhibition at 100 µg/disc (Bacillus subtilis [8]) [mm],zone of inhibition at 12.5 µg/disc (Pseudomonas aeruginosa [9]) [mm],zone of inhibition at 25 µg/disc (Pseudomonas aeruginosa [10]) [mm],zone of inhibition at 50 µg/disc (Pseudomonas aeruginosa [11]) [mm],zone of inhibition at 100 µg/disc (Pseudomonas aeruginosa [12]) [mm],zone of inhibition at 12.5 µg/disc (Klebsiella pneumoniae [13]) [mm],zone of inhibition at 25 µg/disc (Klebsiella pneumoniae [14]) [mm],zone of inhibition at 50 µg/disc (Klebsiella pneumoniae [15]) [mm],zone of inhibition at 100 µg/disc (Klebsiella pneumoniae [16]) [mm],zone of inhibition at 12.5 µg/disc (Aspergillus niger [17]) [mm],zone of inhibition at 25 µg/disc (Aspergillus niger [18]) [mm],zone of inhibition at 50 µg/disc (Aspergillus niger [19]) [mm],zone of inhibition at 100 µg/disc (Aspergillus niger [20]) [mm],also measured
Cc1cc(SCc2nnc(-c3ccc(Cl)cc3)n2N)nc(SCc2nnc(-c3ccc(Cl)cc3)n2N)n1,10,11,13,15,16,18,20,24,18,21,24,27,22,24,26,29,32,33,35,38,zone of inhibition at 12.5 µg/disc (Penicillium chrysogenum [21]): 21 mm; zone of inhibition at 25 µg/disc (Penicillium chrysogenum [22]): 23 mm; zone of inhibition at 50 µg/disc (Penicillium chrysogenum [23]): 25 mm; zone of inhibition at 100 µg/disc (Penicillium chrysogenum [24]): 29 mm; MIC (Staphylococcus aureus [25]): 100 µg; MIC (Pseudomonas aeruginosa [26]): 25 µg; MIC (Klebsiella pneumoniae [27]): 25 µg; MIC (Aspergillus niger [28]): 6.25 µg; MIC (Penicillium chrysogenum [29]): 25 µg; MBC (Staphylococcus aureus [30]): >200 µg; MBC (Bacillus subtilis [31]): 200; MBC (Pseudomonas aeruginosa [32]): 100 µg; MBC (Klebsiella pneumoniae [33]): 100 µg; MFC (Aspergillus niger [34]): 12.5 µg; MFC (Penicillium chrysogenum [35]): 100 µg; Ratio (Aspergillus niger [36]): 2
Cc1cc(SCc2nnc(-c3ccc(Cl)cc3)s2)nc(SCc2nnc(-c3ccc(Cl)cc3)s2)n1,15,17,19,21,21,23,26,29,26,29,32,34,28,30,32,35,24,26,28,31,zone of inhibition at 12.5 µg/disc (Penicillium chrysogenum [21]): 15 mm; zone of inhibition at 25 µg/disc (Penicillium chrysogenum [22]): 17 mm; zone of inhibition at 50 µg/disc (Penicillium chrysogenum [23]): 19 mm; zone of inhibition at 100 µg/disc (Penicillium chrysogenum [24]): 22 mm; MIC (Staphylococcus aureus [25]): 50 µg; MIC (Pseudomonas aeruginosa [26]): 6.25 µg; MIC (Klebsiella pneumoniae [27]): 12.5 µg; MIC (Aspergillus niger [28]): 12.5 µg; MIC (Penicillium chrysogenum [29]): 50 µg; MBC (Staphylococcus aureus [30]): 200 µg; MBC (Bacillus subtilis [31]): 100; MBC (Pseudomonas aeruginosa [32]): 12.5 µg; MBC (Klebsiella pneumoniae [33]): 50 µg; MFC (Aspergillus niger [34]): 50 µg; MFC (Penicillium chrysogenum [35]): 200 µg; Ratio (Pseudomonas aeruginosa [37]): 2

# Reference: ChEMBL document CHEMBL4251634, “Synthesis and antimicrobial activity of pyrimidinyl 1,3,4-oxadiazoles, 1,3,4-thiadiazoles and 1,2,4-triazoles” (2018)
